Test results as given in patent publication US12226405B2, “Compounds and compositions for inhibiting the activity of HIF2-alpha and their methods of use” (Novartis AG, priority 2020, dated 2025).

Experiments:
[1] = system: HIF2α-regulated expression of the endogenous target gene hEGLN3 in 786-O cells; test: Cellular iScript assay for HIF2α (quantitative RT-PCR of hEGLN3); type: cell-based, human
Procedure, shortened: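 786-O cells were exposed to eleven 2-fold compound dilutions for 48 h at 37° C. Lysates underwent one-step TaqMan qRT-PCR for hEGLN3 with beta-actin as reference; 2^(−ΔΔCt) versus DMSO, as % of control, was fit with a four-parameter model to give IC50.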

[2] = system: HIF2α-dependent transcription in 786-O-HRE-Luc cells; test: In vitro cellular hypoxia response element (HRE) reporter gene assay (RGA) for HIF2α; type: cell-based, human; settings: 24 hours incubation
Procedure, shortened: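 Renal carcinoma cells carrying a 4×HRE-driven PEST-destabilised firefly luciferase were treated a day after seeding with eleven 2-fold compound dilutions (0.1% DMSO) for 24 h at 37° C. BrightGlo luminescence, background-subtracted and expressed as % of DMSO control, was fitted four-parametrically for IC50.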

[3] = molecular target: HIF2α PAS-B domain (236-350, biotinylated on the N-terminus) (Homo sapiens (Human), UniProt Q99814)
Protocol: The assay buffer contained 50 mM Tris-HCl pH7 (Sigma), 20 mM NaCl (Fluka), 0.02% BSA (Sigma), 0.005% Triton X-100 (Pierce) and 1 mM DTT (Fluka). After a 30 min incubation period, 5 μL Streptavidin PVT SPA Beads (Perkin Elmer) at 1.2 mg/mL, diluted in the buffer, were added.

[4] = Homo sapiens, 786-0, 48 hours incubation

Sequence of HIF2α PAS-B domain (236-350, biotinylated on the N-terminus) (Q99814 236-350): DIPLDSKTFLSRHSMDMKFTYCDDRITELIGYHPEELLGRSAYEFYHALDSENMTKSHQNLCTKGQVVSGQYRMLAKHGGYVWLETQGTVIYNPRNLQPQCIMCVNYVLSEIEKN

SMILES	IC50 [1, 4] [nM]	IC50 ([2]; Homo sapiens) [nM]	IC50 [3] [nM]	IC50 ([1]; 48 hours incubation) [nM]	IC50 [2] [nM]
FCOC1=CC(C(F)(F)F)=CN2C[C@@]3(CCOc4c(Cl)cccc43)N=C12 [Example 95, (S)-8-chloro-8′-(fluoromethoxy)-6′-(trifluoromethyl)-3′H-spiro[chromane-4,2′-imidazo[1,2-a]pyridine]]	181	271	23	–	–
Fc1cccc2c1C(F)(F)CC[C@@]21CN2C=C(C(F)(F)F)C=C(OC(F)F)C2=N1 [Example 23, (S)-8-(difluoromethoxy)-4′,4′,5′-trifluoro-6-(trifluoromethyl)-3′,4′-dihydro-2′H,3H-spiro[imidazo[1,2-a]pyridine-2,1′-naphthalene]]	30	92	4	–	–
FC(F)OC1=CC(C(F)(F)F)=CN2C[C@@]3(CCCc4cc(Br)ccc43)N=C12 [Example 11, (S)-6′-bromo-8-(difluoromethoxy)-6-(trifluoromethyl)-3′,4′-dihydro-2′H,3H-spiro[imidazo[1,2-a]pyridine-2,1′-naphthalene]]	33	89	≤ 3	–	–
O=C1c2c(F)cccc2[C@@]2(C[C@@H]1F)CN1C=C(C(F)(F)F)C=C(OC(F)F)C1=N2 [Example 21]	–	–	36	121	1100
Fc1c(Br)ccc2c1CCC[C@@]21CN2C=C(C(F)(F)F)C=C(Cl)C2=N1 [Example 16, (S)-6′-bromo-8-chloro-5′-fluoro-6-(trifluoromethyl)-3′,4′-dihydro-2′H,3H-spiro[imidazo[1,2-a]pyridine-2,1′-naphthalene]]	43	372	≤ 6	–	–
[2H]C1C([2H])([2H])Sc2c(F)cccc2[C@]12CN1C=C(C#N)C=C(OC(F)F)C1=N2 (stereo partly drawn) [Example 109, (2S)-8-(difluoromethoxy)-8′-fluoro-3H-spiro[imidazo[1,2-a]pyridine-2,4′-thiochromane]-6-carbonitrile-2′,2′,3′-d3]	42	90	4	–	–
COC1=CC(C(F)(F)F)=CN2C[C@@]3(CCCc4c3ccc(Br)c4F)N=C12 [Example 80, (S)-6′-bromo-5′-fluoro-8-methoxy-6-(trifluoromethyl)-3′,4′-dihydro-2′H,3H-spiro[imidazo[1,2-a]pyridine-2,1′-naphthalene]]	106	2040	11	–	–
FC(F)OC1=CC(C(F)(F)F)=CN2C[C@@]3(CCOc4c3ccc(Br)c4Br)N=C12 [Example 102, (S)-7,8-dibromo-8′-(difluoromethoxy)-6′-(trifluoromethyl)-3′ H-spiro[chromane-4,2′-imidazo[1,2-a]pyridine]]	48	66	11	–	–
[2H]C1([2H])CC[C@@]2(CN3C=C(C#N)C=C(OC(F)F)C3=N2)c2cccc(F)c21 [Example 27, d2-(S)-8-(difluoromethoxy)-5′-fluoro-3′,4′-dihydro-2′H,3H-spiro[imidazo[1,2-a]pyridine-2,1′-naphthalene]-6-carbonitrile]	102	188	12	–	–
Fc1cccc2c1OCC[C@@]21CN2C=C(C(F)(F)F)C=C(OC(F)F)C2=N1 [Example 47, (S)-8′-(difluoromethoxy)-8-fluoro-6′-(trifluoromethyl)-3′H-spiro[chroman-4,2′-imidazo[1,2-a]pyridine]]	82	694	11	–	–
Fc1ccc2c(c1F)OCC[C@@]21CN2C=C(C(F)(F)F)C=C(OC(F)F)C2=N1 [Example 45, (S)-8′-(difluoromethoxy)-7,8-difluoro-6′-(trifluoromethyl)-3′H-spiro[chroman-4,2′-imidazo[1,2-a]pyridine]]	85	313	≤ 10	–	–
FC(F)OC1=CC(C(F)(F)F)=CN2C[C@@]3(CCOc4c(C(F)(F)F)cccc43)N=C12 [Example 104, (S)-8′-(difluoromethoxy)-6′,8-bis(trifluoromethyl)-3′H-spiro[chromane-4,2′-imidazo[1,2-a]pyridine]]	118	624	≤ 5	–	–
FC(F)OC1=CC(C(F)(F)F)=CN2C[C@@]3(CCOc4cc(Br)ccc43)N=C12 [Example 50, (S)-7-bromo-8′-(difluoromethoxy)-6′-(trifluoromethyl)-3′H-spiro[chroman-4,2′-imidazo[1,2-a]pyridine]]	61	153	≤ 10	–	–
Fc1c(C(F)(F)F)ncc2c1SCC[C@@]21CN2C=C(C(F)(F)F)C=C(OC(F)F)C2=N1 [Example 67, (S)-8-(difluoromethoxy)-8′-fluoro-6,7′-bis(trifluoromethyl)-2′,3′-dihydro-3H-spiro[imidazo[1,2-a]pyridine-2,4′-thiopyrano[3,2-c]pyridine]]	57	107	15	–	–
FC(F)OC1=CC(C(F)(F)F)=CN2C[C@@]3(CCCc4c(Cl)cccc43)N=C12 [Example 88, (S)-5′-chloro-8-(difluoromethoxy)-6-(trifluoromethyl)-3′,4′-dihydro-2′H,3H-spiro[imidazo[1,2-a]pyridine-2,1′-naphthalene]]	32	142	≤ 4	–	–
N#CC1=CN2C[C@@]3(CCCc4c(F)cccc43)N=C2C(OC(F)F)=C1 [Example 26, (S)-8-(difluoromethoxy)-5′-fluoro-3′,4′-dihydro-2′H,3H-spiro[imidazo[1,2-a]pyridine-2,1′-naphthalene]-6-carbonitrile]	34	144	≤ 6	–	–
Fc1c(Br)ccc2c1OCC[C@@]21CN2C=C(Cl)C=C(OC(F)F)C2=N1 [Example 52, (S)-7-bromo-6′-chloro-8′-(difluoromethoxy)-8-fluoro-3′H-spiro[chroman-4,2′-imidazo[1,2-a]pyridine]]	87	416	11	–	–
Fc1c(Br)ccc2c1C(F)(F)CC[C@@]21CN2C=C(C(F)(F)F)C=C(OC(F)F)C2=N1 [Example 14, (S)-6′-bromo-8-(difluoromethoxy)-4′,4′,5′-trifluoro-6-(trifluoromethyl)-3′,4′-dihydro-2′H,3H-spiro[imidazo[1,2-a]pyridine-2,1′-naphthalene]]	57	146	9	–	–
N#CC1=CN2C[C@@]3(CCSc4c3ccc(F)c4F)N=C2C(OC(F)F)=C1 [Example 112, (S)-8-(difluoromethoxy)-7′,8′-difluoro-3H-spiro[imidazo[1,2-a]pyridine-2,4′-thiochromane]-6-carbonitrile]	41	116	7	–	–
COc1nccc2c1C(F)(F)CC[C@@]21CN2C=C(C(F)(F)F)C=C(OC(F)F)C2=N1 [Example 34, (S)-8-(difluoromethoxy)-8′,8′-difluoro-1′-methoxy-6-(trifluoromethyl)-7′,8′-dihydro-3H, 6′H-spiro[imidazo[1,2-a]pyridine-2,5′-isoquinoline]]	197	1430	23	–	–
O[C@H]1c2c(ccc(Br)c2F)[C@@]2(C[C@H]1F)CN1C=C(C(F)(F)F)C=C(OC(F)F)C1=N2 [Example 10, (1′S,3′R,4'S)-6′-bromo-8-(difluoromethoxy)-3′,5′-difluoro-6-(trifluoromethyl)-3′,4′-dihydro-2′H,3H-spiro[imidazo[1,2-a]pyridine-2,1′-naphthalen]-4′-ol]	77	207	21	–	–
